{"source": "the NIST ThermoML archive (doi:10.1016/j.jct.2012.07.024)", "key": {"[1]": {"conditions": "101.33 kPa, Liquid; for viscosity: Concentric cylinders viscometry; for mass density: Vibrating tube method"}, "[2]": {"assay": "refractive index (Na D-line) (dimensionless)", "conditions": "101.33 kPa, Liquid, Standard Abbe refractometry"}}, "note": "± gives the expanded uncertainty stated by the source."}
{"smiles": "CC(O)CO", "note": "(stereo not given) [1,2-propanediol]", "values": [{"measurement": "viscosity", "setting": "[1]; 288.15 K", "result": "82.86 ± 1.8", "unit": "mPa·s"}, {"measurement": "mass density", "setting": "[1]; 288.15 K", "result": "1039.87 ± 0.14", "unit": "kg/m3"}, {"measurement": "viscosity", "setting": "[1]; 293.15 K", "result": "59.84 ± 1.2", "unit": "mPa·s"}, {"measurement": "mass density", "setting": "[1]; 293.15 K", "result": "1036.25 ± 0.14", "unit": "kg/m3"}, {"measurement": "viscosity", "setting": "[1]; 298.15 K", "result": "44.19 ± 0.9", "unit": "mPa·s"}, {"measurement": "mass density", "setting": "[1]; 298.15 K", "result": "1032.59 ± 0.13", "unit": "kg/m3"}, {"measurement": "viscosity", "setting": "[1]; 303.15 K", "result": "33.29 ± 0.68", "unit": "mPa·s"}, {"measurement": "mass density", "setting": "[1]; 303.15 K", "result": "1028.88 ± 0.13", "unit": "kg/m3"}, {"measurement": "viscosity", "setting": "[1]; 308.15 K", "result": "25.54 ± 0.52", "unit": "mPa·s"}, {"measurement": "mass density", "setting": "[1]; 308.15 K", "result": "1025.14 ± 0.13", "unit": "kg/m3"}, {"measurement": "viscosity", "setting": "[1]; 313.15 K", "result": "19.92 ± 0.41", "unit": "mPa·s"}, {"measurement": "mass density", "setting": "[1]; 313.15 K", "result": "1021.35 ± 0.13", "unit": "kg/m3"}, {"measurement": "viscosity", "setting": "[1]; 318.15 K", "result": "15.79 ± 0.32", "unit": "mPa·s"}, {"measurement": "mass density", "setting": "[1]; 318.15 K", "result": "1017.52 ± 0.13", "unit": "kg/m3"}, {"measurement": "viscosity", "setting": "[1]; 323.15 K", "result": "12.76 ± 0.26", "unit": "mPa·s"}, {"measurement": "mass density", "setting": "[1]; 323.15 K", "result": "1013.66 ± 0.13", "unit": "kg/m3"}, {"measurement": "viscosity", "setting": "[1]; 328.15 K", "result": "10.35 ± 0.21", "unit": "mPa·s"}, {"measurement": "mass density", "setting": "[1]; 328.15 K", "result": "1009.75 ± 0.13", "unit": "kg/m3"}, {"measurement": "viscosity", "setting": "[1]; 333.15 K", "result": "8.586 ± 0.18", "unit": "mPa·s"}, {"measurement": "mass density", "setting": "[1]; 333.15 K", "result": "1005.79 ± 0.13", "unit": "kg/m3"}, {"measurement": "refractive index", "setting": "[2]; 288.15 K", "result": "1.43425 ± 0.00033"}, {"measurement": "refractive index", "setting": "[2]; 293.15 K", "result": "1.4326 ± 0.00033"}, {"measurement": "refractive index", "setting": "[2]; 298.15 K", "result": "1.43093 ± 0.00033"}, {"measurement": "refractive index", "setting": "[2]; 303.15 K", "result": "1.42927 ± 0.00033"}, {"measurement": "refractive index", "setting": "[2]; 308.15 K", "result": "1.4276 ± 0.00033"}, {"measurement": "refractive index", "setting": "[2]; 313.15 K", "result": "1.4259 ± 0.00033"}, {"measurement": "refractive index", "setting": "[2]; 318.15 K", "result": "1.42422 ± 0.00033"}, {"measurement": "refractive index", "setting": "[2]; 323.15 K", "result": "1.42252 ± 0.00033"}, {"measurement": "refractive index", "setting": "[2]; 328.15 K", "result": "1.42078 ± 0.00033"}, {"measurement": "refractive index", "setting": "[2]; 333.15 K", "result": "1.41909 ± 0.00033"}]}
{"smiles": "OCCCO", "note": "[propan-1,3-diol]", "values": [{"measurement": "viscosity", "setting": "[1]; 288.15 K", "result": "68.06 ± 1.5", "unit": "mPa·s"}, {"measurement": "mass density", "setting": "[1]; 288.15 K", "result": "1055.96 ± 0.95", "unit": "kg/m3"}, {"measurement": "viscosity", "setting": "[1]; 293.15 K", "result": "52.75 ± 1.2", "unit": "mPa·s"}, {"measurement": "mass density", "setting": "[1]; 293.15 K", "result": "1052.87 ± 0.95", "unit": "kg/m3"}, {"measurement": "viscosity", "setting": "[1]; 298.15 K", "result": "41.97 ± 0.95", "unit": "mPa·s"}, {"measurement": "mass density", "setting": "[1]; 298.15 K", "result": "1049.76 ± 0.94", "unit": "kg/m3"}, {"measurement": "viscosity", "setting": "[1]; 303.15 K", "result": "33.56 ± 0.76", "unit": "mPa·s"}, {"measurement": "mass density", "setting": "[1]; 303.15 K", "result": "1046.64 ± 0.93", "unit": "kg/m3"}, {"measurement": "viscosity", "setting": "[1]; 308.15 K", "result": "27.15 ± 0.61", "unit": "mPa·s"}, {"measurement": "mass density", "setting": "[1]; 308.15 K", "result": "1043.5 ± 0.93", "unit": "kg/m3"}, {"measurement": "viscosity", "setting": "[1]; 313.15 K", "result": "22.22 ± 0.5", "unit": "mPa·s"}, {"measurement": "mass density", "setting": "[1]; 313.15 K", "result": "1040.35 ± 0.92", "unit": "kg/m3"}, {"measurement": "viscosity", "setting": "[1]; 318.15 K", "result": "18.35 ± 0.41", "unit": "mPa·s"}, {"measurement": "mass density", "setting": "[1]; 318.15 K", "result": "1037.18 ± 0.91", "unit": "kg/m3"}, {"measurement": "viscosity", "setting": "[1]; 323.15 K", "result": "15.29 ± 0.34", "unit": "mPa·s"}, {"measurement": "mass density", "setting": "[1]; 323.15 K", "result": "1033.98 ± 0.91", "unit": "kg/m3"}, {"measurement": "viscosity", "setting": "[1]; 328.15 K", "result": "12.84 ± 0.29", "unit": "mPa·s"}, {"measurement": "mass density", "setting": "[1]; 328.15 K", "result": "1030.77 ± 0.9", "unit": "kg/m3"}, {"measurement": "viscosity", "setting": "[1]; 333.15 K", "result": "10.96 ± 0.25", "unit": "mPa·s"}, {"measurement": "mass density", "setting": "[1]; 333.15 K", "result": "1027.53 ± 0.89", "unit": "kg/m3"}, {"measurement": "refractive index", "setting": "[2]; 288.15 K", "result": "1.44073 ± 0.00051"}, {"measurement": "refractive index", "setting": "[2]; 293.15 K", "result": "1.43932 ± 0.00051"}, {"measurement": "refractive index", "setting": "[2]; 298.15 K", "result": "1.43792 ± 0.00051"}, {"measurement": "refractive index", "setting": "[2]; 303.15 K", "result": "1.43654 ± 0.00051"}, {"measurement": "refractive index", "setting": "[2]; 308.15 K", "result": "1.43513 ± 0.00051"}, {"measurement": "refractive index", "setting": "[2]; 313.15 K", "result": "1.43375 ± 0.00051"}, {"measurement": "refractive index", "setting": "[2]; 318.15 K", "result": "1.43232 ± 0.00051"}, {"measurement": "refractive index", "setting": "[2]; 323.15 K", "result": "1.43087 ± 0.00051"}, {"measurement": "refractive index", "setting": "[2]; 328.15 K", "result": "1.42945 ± 0.00051"}, {"measurement": "refractive index", "setting": "[2]; 333.15 K", "result": "1.42803 ± 0.00051"}]}
